We go through one substance from patent US20210401931A1, “METHODS AND MATERIALS FOR TREATING CANCER” (Mayo Foundation for Medical Education and Research, priority 2018, published 2021).

For this test, the system named is NFκB target genes. The experiment in a line: Expression of NFκB target genes in PC-3 cells (RNA-seq, RT-qPCR). The class given is cell-based, human. Conditions: PC-3 cells expressing peptide, TNFα 20 ng/mL, 24 hours. The protocol: FIGS. 4A-G. RB globally regulates NFkB transcriptional program in cells. […] (F, G) PC-3 cell were treated with or without palbociclib (5 μM) for 24 hours or PC-3 cells were infected with lentivirus expressing control shRNA or RB-specific shRNA following puromycin selection after 48 hours infection. Cells were harvested for RT-qPCR (F) and ChIP-qPCR (G) analysis of p65 binding at the promotor of PD-L1, GADD45B, NR4A2, and CD83. All data were shown as mean values±SD (n=3). * P<0.05, ** P<0.01, ***P<0.001.
FIGS. 16A-K. Mutual exclusivity of PTEN and MAP3K7 gene deletion in human cancers and CDK4/6 inhibition-mediated blockage of MAP3K7 deficiency-induced death of PTEN-null cells. (A) Genetic alterations of MAP3K7 and PTEN genes in the TCGA prostate cancer dataset. (B) Genetic alterations of MAP3K7 and PTEN genes in lymphoid neoplasm diffuse large B-cell lymphoma, stomach adenocarcinoma, pancreatic cancer, liver cancer, bladder urothelial carcinoma, and lung adenocarcinoma. (C-E) PC-3 cells were infected with lentivirus expressing control or MAP3K7-specific shRNAs. 72 hours after infection, cells were harvested for western blotting (C), cell growth assay (D), and colony formation assay (E). All data were shown as mean values±SD (n=3). ns, not significant, * P<0.05 comparing to the shControl group. (F-H) LNCaP-RF prostate cancer cells were infected with lentivirus expressing control or MAP3K7-specific shRNAs. 72 hours after infection, cells were harvested for western blotting (F), cell growth assay (G), and colony formation assay (H). All data are shown as mean values±SD (n=3). ns, not significant, * P<0.05 comparing to the shControl group. (I-K) PC-3 cells were infected with lentivirus expressing control, MAP3K7 or CHD1-specific shRNAs. 72 hours after infection, cells were treated with DMSO or palbociclib (5 μM). […]
FIGS. 17A-I. Negative regulation of MAP3K7-IKK-NFκB and CHD1-NFκB signaling by RB. […] 72 hours after infection and puromycin selection, cells were injected s.c. into the right flank of NSG mice, and tumor growth was measured for 21 days. […]
In general terms: Quantitative PCR measures a nucleic acid by following its amplification.

Ends that are not written are not given here.

Regarding “RL-S249D/T252D: S249/T252 phospho-mimicking R-Linker (RL) peptide: fragment of RB-N containing 21 amino acids surrounding S249/T252, expressed SFB-tagged or by lentivirus (NGDPRDPRRGQNRSARIAKQL; also: expressed SFB-tagged (tag left off))”, the “TNFα-induced expression of NFκB target genes” value was “blocked”.
